# Activity calls are given as the source filed them. The calls are words filed in the database; no cut-off is given here.
# Legend:
# [1] = test system: BV-2; test: Anti-neuroinflammatory activity in mouse BV-2 cells assessed as inhibition of LPS-induced NO production measured after 24 hrs by Griess reagent based assay; format: functional, cell-based; details: BV-2, 24 h
# [2] = Cytotoxicity against mouse BV-2 cells assessed as reduction in cell viability measured after 24 hrs by MTT assay; format: cell-based
# [3] = test system: BV-2; test: Anti-neuroinflammatory activity in mouse BV-2 cells assessed as reduction in LPS-stimulated COX-2 mRNA expression at 1 to 10 uM by qRT-PCR analysis; format: functional, cell-based; details: dose 1-10 µM
# [4] = target: Transcription factor p65 (Mus musculus) (UniProt Q04207); test: Inhibition of NF-kappaB p65 nuclear translocation in LPS-stimulated mouse BV-2 cells at 10 uM incubated with compound prior to LPS stimulation by DAPI staining based immunofluorescence assay; format: cell-based
# Transcription factor p65 (Mus musculus), sequence (Q04207 whole entry): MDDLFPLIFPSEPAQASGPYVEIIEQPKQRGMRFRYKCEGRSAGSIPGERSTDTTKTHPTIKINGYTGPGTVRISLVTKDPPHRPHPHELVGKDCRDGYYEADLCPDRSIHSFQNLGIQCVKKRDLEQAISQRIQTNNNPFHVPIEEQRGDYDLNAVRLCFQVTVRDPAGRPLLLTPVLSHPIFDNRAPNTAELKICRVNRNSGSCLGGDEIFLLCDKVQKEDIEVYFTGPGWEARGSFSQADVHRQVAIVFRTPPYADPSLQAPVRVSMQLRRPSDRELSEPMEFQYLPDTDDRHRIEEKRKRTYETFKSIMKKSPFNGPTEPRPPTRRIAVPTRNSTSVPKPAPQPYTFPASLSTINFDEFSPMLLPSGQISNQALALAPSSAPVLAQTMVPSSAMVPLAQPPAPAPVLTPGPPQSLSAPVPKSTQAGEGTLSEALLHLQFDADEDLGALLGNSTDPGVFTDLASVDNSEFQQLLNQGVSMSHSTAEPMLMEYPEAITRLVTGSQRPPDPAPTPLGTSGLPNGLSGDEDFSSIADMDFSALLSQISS
# [5] = test system: BV-2; test: Anti-neuroinflammatory activity in mouse BV-2 cells assessed as reduction in LPS-stimulated IL-1beta mRNA expression by qRT-PCR analysis; format: functional, cell-based; details: dose 1-10 µM
# [6] = test system: BV-2; test: Anti-neuroinflammatory activity in mouse BV-2 cells assessed as reduction in LPS-stimulated TNFalpha production at 1 to 10 uM preincubated for 1 hr followed by LPS treatment and measured after 24 hrs by ELISA; format: functional, cell-based; details: dose 1-10 µM, time 25.0 hrs
# [7] = test system: BV-2; test: Inhibition of TLR4 production in LPS stimulated mouse BV-2 cells at 1 to 10 uM preincubated with LPS for 1 hr followed by incubation with compound for 16 hrs by western blot analysis; format: functional, cell-based; details: dose 1-10 µM
# [8] = target: MAP kinase p38 (Mus musculus) (UniProt P47811+O08911+Q9WUI1+Q9Z1B7); test: Inhibition of p38 phosphorylation in LPS stimulated mouse BV-2 cells at 1 to 10 uM preincubated with LPS for 1 hr followed by incubation with compound for 16 hrs by western blot analysis; format: cell-based; details: dose 1-10 µM
# [9] = test system: BV-2; test: Anti-neuroinflammatory activity in mouse BV-2 cells assessed as reduction in LPS-stimulated IL-6 mRNA expression by qRT-PCR analysis; format: functional, cell-based; details: dose 1-10 µM
# [10] = test system: BV-2; test: Anti-neuroinflammatory activity against LPS stimulated mouse BV-2 cells assessed as reduction in iNOS protein expression measured after 24 hrs in presence of LPS by western blot analysis; format: functional, cell-based; details: dose 1-10 µM
# [11] = test system: BV-2; test: Anti-neuroinflammatory activity in mouse BV-2 cells assessed as reduction in LPS-stimulated iNOS mRNA expression at 1 to 10 uM by qRT-PCR analysis; format: functional, cell-based; details: dose 1-10 µM
# [12] = test system: BV-2; test: Anti-neuroinflammatory activity in mouse BV-2 cells assessed as reduction in LPS-stimulated TNF-alpha mRNA expression by qRT-PCR analysis; format: functional, cell-based; details: dose 1-10 µM
# [13] = test system: BV-2; test: Anti-neuroinflammatory activity in mouse BV-2 cells assessed as reduction in LPS-stimulated IL-6 production at 1 to 10 uM preincubated for 1 hr followed by LPS treatment and measured after 24 hrs by ELISA; format: functional, cell-based; details: dose 1-10 µM, time 25.0 hrs
# [14] = test system: BV-2; test: Inhibition of ERK phosphorylation in LPS stimulated mouse BV-2 cells at 1 to 10 uM preincubated with LPS for 1 hr followed by incubation with compound for 16 hrs by western blot analysis; format: cell-based; details: dose 1-10 µM
# [15] = test system: BV-2; test: Anti-neuroinflammatory activity in mouse BV-2 cells assessed as reduction in LPS-stimulated IL-1 beta production at 1 to 10 uM preincubated for 1 hr followed by LPS treatment and measured after 24 hrs by ELISA; format: functional, cell-based; details: dose 1-10 µM, time 25.0 hrs
# [16] = target: c-Jun N-terminal kinase (Mus musculus) (UniProt Q91Y86+Q9WTU6+Q61831); test: Inhibition of JNK phosphorylation in LPS stimulated mouse BV-2 cells at 1 to 10 uM preincubated with LPS for 1 hr followed by incubation with compound for 16 hrs by western blot analysis; format: cell-based; details: dose 1-10 µM
# c-Jun N-terminal kinase (Mus musculus), sequence (Q61831 whole entry, looked up): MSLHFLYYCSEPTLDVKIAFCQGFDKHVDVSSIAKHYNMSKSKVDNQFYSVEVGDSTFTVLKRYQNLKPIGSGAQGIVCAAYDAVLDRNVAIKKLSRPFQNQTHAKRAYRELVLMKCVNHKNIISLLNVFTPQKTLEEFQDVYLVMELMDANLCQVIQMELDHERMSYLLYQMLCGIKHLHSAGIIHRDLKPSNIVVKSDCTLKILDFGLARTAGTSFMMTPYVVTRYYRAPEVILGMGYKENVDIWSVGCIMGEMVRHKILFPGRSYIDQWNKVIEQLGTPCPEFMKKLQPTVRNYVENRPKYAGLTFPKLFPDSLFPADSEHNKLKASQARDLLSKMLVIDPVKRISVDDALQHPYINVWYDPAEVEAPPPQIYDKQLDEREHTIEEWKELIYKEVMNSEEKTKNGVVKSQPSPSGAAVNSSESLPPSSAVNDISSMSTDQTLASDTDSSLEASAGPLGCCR
# c-Jun N-terminal kinase (Mus musculus), sequence (Q91Y86 whole entry, looked up): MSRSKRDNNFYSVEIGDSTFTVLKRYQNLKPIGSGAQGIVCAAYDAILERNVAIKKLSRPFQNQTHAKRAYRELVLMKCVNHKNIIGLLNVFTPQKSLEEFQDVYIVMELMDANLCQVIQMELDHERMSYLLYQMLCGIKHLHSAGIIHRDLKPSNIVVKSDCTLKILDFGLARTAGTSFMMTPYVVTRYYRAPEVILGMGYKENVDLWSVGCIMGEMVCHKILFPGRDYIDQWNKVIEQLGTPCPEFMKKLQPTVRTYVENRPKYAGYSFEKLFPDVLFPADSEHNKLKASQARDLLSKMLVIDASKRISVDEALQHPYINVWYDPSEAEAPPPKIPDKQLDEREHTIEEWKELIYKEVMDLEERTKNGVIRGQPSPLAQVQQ
# c-Jun N-terminal kinase (Mus musculus), sequence (Q9WTU6 whole entry, looked up): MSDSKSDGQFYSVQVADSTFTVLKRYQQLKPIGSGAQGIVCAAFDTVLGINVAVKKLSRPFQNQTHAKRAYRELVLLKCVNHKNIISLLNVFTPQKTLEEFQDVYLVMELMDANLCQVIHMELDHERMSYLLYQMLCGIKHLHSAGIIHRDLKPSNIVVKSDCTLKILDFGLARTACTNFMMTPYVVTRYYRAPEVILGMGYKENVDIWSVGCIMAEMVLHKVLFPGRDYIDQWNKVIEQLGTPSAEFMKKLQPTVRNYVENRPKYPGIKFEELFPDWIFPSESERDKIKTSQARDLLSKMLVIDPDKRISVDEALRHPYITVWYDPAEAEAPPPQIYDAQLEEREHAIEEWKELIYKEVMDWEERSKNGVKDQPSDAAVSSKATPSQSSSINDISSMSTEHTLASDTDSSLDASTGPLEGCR
# [17] = test system: BV-2; test: Anti-neuroinflammatory activity against LPS stimulated mouse BV-2 cells assessed as reduction in COX-2 protein expression at 1 to 10 uM measured after 24 hrs in presence of LPS by western blot analysis; format: functional, cell-based; details: dose 1-10 µM
Compound,IC50 [1],CC50 at 24 h [2],also measured
Cc1c2c(cc(C(C)C)cc1=O)[C@@H](C)C[C@@H]2O,> 30 µM,35 µM,–
CC(C)c1cc2c(c(CO)c(=O)c1)[C@H](O)C[C@@H]2C,9 µM,74 µM,Activity [3]: Active; inhibition [4]: Active; Activity [5]: Active; Activity [6]: Active; inhibition [7]: inactive; inhibition [8]: inactive; Activity [9]: Active; Activity [10]: Dose-Dependent Effect; Activity [11]: Active; Activity [12]: Active; Activity [13]: Active; inhibition [14]: inactive; Activity [15]: Active; inhibition [16]: inactive; Activity [17]: Active
Cc1c2c(cc(C(C)C)cc1=O)[C@@](C)(O)CC2,> 30 µM,79 µM,–
CC(C)c1cc2c(c(CO)c(=O)c1)[C@@H](O)C[C@@H]2C,20 µM,49 µM,–
CNC(=N)NCCC[C@H](N)C(=O)O [TILARGININE],10 µM,> 200 µM,–

# Further lines, with some results ahead:
IC50 [1],Compound,CC50 at 24 h [2],also measured
26 µM,Cc1c2c(cc(C(C)C)cc1=O)[C@@H](C)C[C@H]2O,78 µM,–
> 30 µM,Cc1c2c(cc(C(C)C)cc1=O)[C@@H](C)CC2,76 µM,–
> 30 µM,CC(C)c1cc2c(c(CO)c(=O)c1)CC[C@@]2(C)O,61 µM,–
> 30 µM,Cc1c2c(cc(C(C)(C)O)cc1=O)[C@@H](C)C[C@@H]2O,39 µM,–
> 30 µM,Cc1c2c(cc(C(C)C)cc1=O)[C@](C)(O)C[C@@H]2O,49 µM,–

# From ChEMBL document CHEMBL4823279, “Epigenetic Manipulation to Trigger Production of Guaiane-Type Sesquiterpenes from a Marine-Derived Spiromastix sp. Fungus with Antineuroinflammatory Effects” (J Nat Prod, 2021)
